Measurements from patent publication US7547729B2, “1,3-diphenylprop-2-en-1-one derivative compounds, preparation method thereof and uses of same” (Genfit, priority 2004, dated 2009).
Blank lines part the entries; values can stand above or below the compound they belong to.

Legend:
PPARγ [1] = biological target: T1, PPARγ (Homo sapiens, UniProt P37231); assay: PPARγ/Gal4 transactivation system in COS-7 cells; assay type: cell-based; details: 24 hours
T1 construct: expressed in transfected cells; host or cells: COS-7 cells
T1 sequence (P37231 238-503 limits assumed): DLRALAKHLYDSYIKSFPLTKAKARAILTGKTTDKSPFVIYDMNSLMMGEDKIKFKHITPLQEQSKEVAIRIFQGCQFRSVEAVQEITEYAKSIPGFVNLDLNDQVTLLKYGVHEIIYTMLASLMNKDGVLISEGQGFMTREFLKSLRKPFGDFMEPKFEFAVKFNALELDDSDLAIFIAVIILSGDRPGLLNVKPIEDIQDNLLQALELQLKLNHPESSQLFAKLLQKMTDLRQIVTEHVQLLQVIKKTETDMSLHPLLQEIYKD
Procedure: (§1) COS-7 cells were incubated with different concentrations of the inventive compounds for 24 hours. The results are expressed as the induction factor (ratio of luminescent signal obtained with the compound and that observed without the compound) after the different treatments.
(§2) PPAR activation was tested in vitro in RK13 epitheloid or COS-7 cell lines by measuring the transcriptional activity of chimeras composed of the DNA binding domain of the yeast gal4 transcription factor and the ligand binding domain of the different PPARs. These latter results were then confirmed in cell lines according to the following protocols:
(§3) RK13 cells were from ECACC (Porton Down, UK), COS-7 cells were from the ATCC (American Type Culture Collection) and were grown in DMEM medium supplemented with 10% (VN) fetal calf serum, 100 U/ml penicillin (Gibco, Paisley, UK) and 2 mM L-glutamine (Gibco, Paisley, UK). The culture medium was changed every two days. Cells were kept at 37° C. in a humidified 95% air/5% CO2 atmosphere.
(§4) The plasmids pG5TkpGL3, pRL-CMV, pGal4-hPPARα, pGal4-hPPARγ, pGal4-hPPARδ and pGal4-φ have been described by Raspe, Madsen et al. (1999). The pGal4-mPPARα, pGal4-hPPARγ and pGal4-hPPARδ constructs were obtained by cloning into the pGal4-φ vector of PCR-amplified DNA fragments corresponding to the DEF domains of the human PPARα, PPARγ and PPARδ nuclear receptors.
(§5) RK13 cells were seeded in 24-well culture dishes at 5×10^4 cells/well, COS-7 cells in 96-well culture dishes at 5×10^4 cells/well and transfected for 2 hours with the reporter plasmid pG5TkpGL3 (50 ng/well), the expression vectors pGal4-φ, pGal4-mPPARα, pGal4-hPPARα, pGal4-hPPARγ, pGal4-hPPARδ (100 ng/well) and the transfection efficiency control vector pRL-CMV (1 ng/well) according to the previously described protocol (Raspe, Madsen et al. 1999), then incubated for 36 hours with the test compounds. At the end of the experiment, the cells were lysed (Gibco, Paisley, UK) and luciferase activity was determined with a Dual-Luciferase™ Reporter Assay System kit (Promega, Madison, Wis., USA) for RK13 cells and Steady Glow Luciferase (Promega) for COS-7 cells according to the supplier's instructions as previously described. The protein content of the cell extracts was then measured with the Bio-Rad Protein Assay (Bio-Rad, Munich, Germany) as directed by the supplier.

LDL = assay: Protection against LDL oxidation by copper (conjugated diene formation); assay type: biochemical; details: 10^−4M
Procedure: Unless otherwise indicated, the reagents were from Sigma (St Quentin, France). LDL were prepared according to the method described by Lebeau et al. (Lebeau, Furman et al. 2000).
The solutions of test compounds were prepared at 10^−2 M concentration in bicarbonate buffer (pH 9) and diluted in PBS to obtain final concentrations ranging from 0.1 to 100 μM
Prior to oxidation, EDTA was removed from the LDL preparation by dialysis. Oxidation then took place at 30° C. by adding 100 μl of 16.6 μM CuSO4 solution to 160 μL of LDL (125 μg protein/ml) and 20 μl of a test compound solution. The formation of dienes, the species under observation, was followed by measuring optical density at 232 nm in the samples treated with the compounds in the presence or absence of copper. Optical density at 232 nm was measured every 10 minutes for 8 hours in a thermostated spectrophotometer (Tecan Ultra 380). The analyses were performed in triplicate. The compounds were considered to have antioxidant activity when they induced a longer lag phase and reduced the rate of oxidation and the amount of dienes formed in comparison with the control sample.

PPARδ = biological target: T2, PPARδ (Homo sapiens, UniProt Q03181); assay: PPARδ/Gal4 transactivation system in COS-7 cells; assay type: cell-based; details: 24 hours
T2 construct: expressed in transfected cells; host or cells: COS-7 cells
T2 sequence (Q03181 211-439 limits assumed): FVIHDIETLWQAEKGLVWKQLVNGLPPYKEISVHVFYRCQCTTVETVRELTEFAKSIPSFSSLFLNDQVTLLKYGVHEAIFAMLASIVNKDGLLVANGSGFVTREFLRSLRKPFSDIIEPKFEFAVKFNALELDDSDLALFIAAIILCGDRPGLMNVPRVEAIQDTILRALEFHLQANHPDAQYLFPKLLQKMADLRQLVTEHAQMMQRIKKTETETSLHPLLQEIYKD
Procedure: as §1, §2, §3, §4, §5

PPARα [2] = biological target: T3, PPARα (Homo sapiens, UniProt Q07869); assay: PPARα/Gal4 transactivation system in COS-7 cells; assay type: cell-based; details: 24 hours
T3 construct: expressed in transfected cells; host or cells: COS-7 cells
T3 sequence (Q07869 239-466 limits assumed): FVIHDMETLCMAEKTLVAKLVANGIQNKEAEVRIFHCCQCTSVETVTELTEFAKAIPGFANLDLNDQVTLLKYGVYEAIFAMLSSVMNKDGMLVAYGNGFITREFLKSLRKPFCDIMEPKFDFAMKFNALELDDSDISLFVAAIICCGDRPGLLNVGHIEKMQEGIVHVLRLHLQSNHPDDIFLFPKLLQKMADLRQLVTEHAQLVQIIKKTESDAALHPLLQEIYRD
Procedure: as §1, §2, §3, §4, §5

naive CD4+ T cells = assay: Mixed Lymphocyte Reaction (MLR), BrdU incorporation; assay type: cell-based
Procedure: FIG. 23 illustrates a Mixed Lymphocyte Reaction (MLR) carried out in the presence of increasing amounts of dendritic cells treated or not with compound 31 and incubated with naive CD4+ T cells for seven days. T cell proliferation was determined by BrdU (bromodeoxyuridine) incorporation.
For this experiment, increasing amounts of mature dendritic cells (treated or not with the compound) were incubated with a fixed amount of naive CD4+ T cells from another donor. After a 5-day incubation, BrdU (bromodeoxyuridine) was added for 24 hours and the incorporation thereof in T cells was determined by ELISA with anti-BrdU antibodies coupled to chemiluminescent tags.

[3] = tested on: Apo E2/E2 transgenic mice; assay: Effects on triglyceride and cholesterol metabolism in Apo E2/E2 transgenic mice; assay type: in vivo; details: gavage, 50 mg/kg/day, seven days
Procedure: FIGS. 19a, 19b, 19c, 19d, 20a, 20b, 20c and 20d illustrate the effects of treatment with compound 2 (Cpd2), compound 13 (Cpd13), compound 33 (Cpd33) and compound 39 (Cpd39) on triglyceride and cholesterol metabolism in Apo E2/E2 transgenic mice treated by gavage with the compound at a dose of 50 mg/kg/day, for seven days.
Apo E2/E2 transgenic mice were housed in a 12-hour light/dark cycle at a constant temperature of 20±3° C. After a 1-week acclimatization period, the mice were weighed and divided into groups of 6 animals selected such that the distribution of body weight was uniform. The test compounds were suspended in carboxymethylcellulose and administered by gastric lavage at the indicated doses, once a day for 7 days. Animals had access to food and water ad libitum. At the end of the experiments, animals were weighed and sacrificed under anesthesia. Blood was collected on EDTA. Plasma was isolated by centrifugation at 3000 rpm for 20 minutes. Liver samples were removed and stored frozen in liquid nitrogen for later analysis.
Lipid concentrations in plasma (total cholesterol and free cholesterol, triglycerides and phospholipids) were determined by a colorimetric assay (Boehringer, Mannheim, Germany) according to the supplier's instructions. Plasma concentrations of apolipoproteins AI, AII and CIII were determined as previously described (Raspe et al. 1999, Asset G et al., Lipids, 1999).

PPARγ [4] = biological target: T1, PPARγ; assay: PPARγ/Gal4 transactivation system in RK13 cells; assay type: cell-based; details: 24 hours
Procedure: (§6) RK13 cells were incubated with the compound 2 at concentrations comprised between 0.01 and 10 μM for 24 hours. The results are expressed as the induction factor (ratio of luminescent signal obtained with the compound and that observed without the compound) after the different treatments.
as §2, §3, §4, §5

PPARα [5] = biological target: T3, PPARα; assay: PPARα/Gal4 transactivation system in RK13 cells; assay type: cell-based; details: 24 hours
Procedure: as §6
as §2, with “protocols: […]” for “protocols:”
as §5, with “At the end of the experiment, the cells were lysed (Gibco, Paisley, UK) and luciferase activity was determined with a Dual-Luciferase™ Reporter Assay System kit (Promega, Madison, Wis., USA) for RK13 cells and Steady Glow Luciferase (Promega) for COS-7 cells according to the supplier's instructions as previously described.” left out

Induction factor (PPARγ [1]; 0.001 μM): 1.44
Induction factor (PPARγ [1]; 0.003 μM): 2.19
Induction factor (PPARγ [1]; 0.01 μM): 3.06
Induction factor (PPARγ [1]; 0.03 μM): 4.87
Induction factor (PPARγ [1]; 0.1 μM): 5.99
Induction factor (PPARγ [1]; 0.3 μM): 6.96
Induction factor (PPARγ [1]; 1 μM): 7.05
Induction factor (PPARγ [1]; 3 μM): 7.79
Induction factor (PPARδ; 0.001 μM): 1.00
Induction factor (PPARδ; 0.003 μM): 1.05
Induction factor (PPARδ; 0.01 μM): 1.09
Induction factor (PPARδ; 0.03 μM): 1.16
Induction factor (PPARδ; 0.1 μM): 1.35
Induction factor (PPARδ; 0.3 μM): 2.67
Induction factor (PPARδ; 1 μM): 4.12
Induction factor (PPARδ; 3 μM): 10.82
Induction factor (PPARδ; 10 μM): 11.70
Induction factor (PPARα [2]; 0.001 μM): 1.10
Induction factor (PPARα [2]; 0.003 μM): 1.09
Induction factor (PPARα [2]; 0.01 μM): 1.23
Induction factor (PPARα [2]; 0.03 μM): 1.23
Induction factor (PPARα [2]; 0.1 μM): 1.23
Induction factor (PPARα [2]; 0.3 μM): 1.73
Induction factor (PPARα [2]; 1 μM): 1.88
Induction factor (PPARα [2]; 3 μM): 3.69
Induction factor (PPARα [2]; 10 μM): 6.03
SMILES: Cc1cc(/C=C/C(=O)c2c(C)c(C)c(C)c(C)c2C)cc(C)c1OC(C)(C)C(=O)O [compound 31, 1-(2,3,4,5,6-Pentamethylphenyl)-3-(4-carboxydimethylmethyloxy-3,5-dimethylphenyl)prop-2-en-1-one]
kinetics of LDL oxidation (lag phase) (LDL; FIG. 5a, no control value printed): 124.5 min
LDL oxidation rate (LDL; FIG. 5b, absence of compounds 2): 1.4 nmol/min/mg
total amount of dienes formed (LDL; FIG. 5c, absence of compounds 386): 352 nmol/mg
capacity of treated dendritic cells to induce proliferation of naive CD4+ T cells (naive CD4+ T cells): lower capacity

Induction factor (PPARγ [4]; 0.01 μM): 1.31
Induction factor (PPARγ [4]; 0.03 μM): 1.18
Induction factor (PPARγ [4]; 0.1 μM): 1.73
Induction factor (PPARγ [4]; 0.3 μM): 4.58
Induction factor (PPARγ [4]; 1 μM): 9.50
Induction factor (PPARγ [4]; 3 μM): 16.64
Induction factor (PPARγ [4]; 10 μM): 31.00
Induction factor (PPARα [5]; 1 μM): 8.83
Induction factor (PPARα [5]; 10 μM): 18.49
SMILES: CCCCCSCCOc1ccc(C(=O)/C=C/c2cc(C)c(OC(C)(C)C(=O)O)c(C)c2)cc1 [compound 2, 1-(4-(Pentylthioethyloxy)phenyl)-3-(4-carboxydimethylmethyloxy-3,5-dimethylphenyl)prop-2-en-1-one]
lag phase of conjugated diene formation (LDL; FIG. 1a, copper alone 120 minutes): 314 min
rate of diene formation (LDL; FIG. 1b, copper alone 1.8): 0.1 nmol/min/mg of LDL
maximum amount of conjugated dienes formed (LDL; FIG. 1c, copper alone 372): 35 nmol/mg
decrease in the amount of conjugated dienes formed (LDL; FIG. 1c, versus copper alone): 90%
plasma cholesterol [3]: decrease
plasma triglycerides [3]: decrease
